Measured values published in patent US5298496A (Chinoin Gyogyszer- ES Vegyeszeti Termekek Gyara Rt., priority 1990, dated 1994).
Blank lines part the entries; values can stand above or below the compound they belong to.

How the values were obtained:
[1] = UV spectrum shift of dilute aqueous SIN 1 solution (about 10 μg/ml) with cyclodextrins, diffuse lighting, room temperature; assay type: physicochemical; conditions: for efficiency sequence concluded from the UV spectrum shift: stabilizing effect on SIN 1, ranking in words
Method: The solutions were stored at room temperature (20°-22° C.) in diffuse lighting and in certain periods (daily) the UV spectrum of the solutions were registered in the interval between 220-350 nm. As a control only the aqueous solution, and the 0,05N hydrochloric acid solution were used respectively. […] The pH values of the applied cyclodextrin solutions of greatest concentration differed only within ±0.2 unit from the pH value of distilled water.
The decomposition hindering, slow down effect of DIMEB (2,6-di-O-methyl-β-cyclodextrin) is definite too. In the presence of 20 mg/ml DIMEB the spectrum of the solution has shown only a shift within 1 nm after a 6 day storage. We also tested the stabilizing effect of TRIMEB (2,3,6-tri-O-methyl-β-cyclodextrin), of γ-CO, β-CO and of hydroxypropyl-β-CO. The efficiency sequence concluded from the UV spectrum shift was as follows: […]

[2] = Hydrolytic decomposition of SIN 1 to SIN 1C as function of pH (literature / background); assay type: physicochemical; conditions: diffused lighting
Method: It can be generally said that the sydnonimine derivatives are sensitive to extreme pH values, and are decomposed quickly. […] The process is strictly pH dependent, e.g. to achieve a decomposition of 10% (SIN 1C) 53 sec. at a pH value of 8, 15 hours at a pH of 6, 67 days at a pH of 4, and 13 years at a pH of 1-2 are necessary. (Chem. Pharm. Bull. 19/6 1079, 1971). […] The decomposition can be followed from the UV spectrum directly.

[3] = Change of λ max of SIN 1 with time in phosphate buffers of pH 6.4, 7.0 and 7.6 with and without CDPSI (UV spectrophotometry); assay type: physicochemical; conditions: for λ max.: 1 mg/ml SIN 1, +CDPSI 20 mg/ml
[4] = Thin-layer chromatography of SIN 1 decomposition with and without CDPSI; assay type: physicochemical; conditions: 1 day of storage
Method: In such a concentration range spectrophotometric measurement dose not give a descriptive picture. For this reason the decomposition degree was determined by thin-layer chromatography in the following way: From the solutions 10 μl were dropwise added on a Kieselgel 60 F254 plate (10×10 cm, Merck). Running mixture: cyclohexane:ethyl-acetate in a ratio of 1:1. The running tub was let for 30 minutes to saturation. On the plate also SIN 1C reference solution was dropwise added. On the dropping spot the plate was dried in a cold air flow protected from light and it was let to run up to a […] height. During the running period the running tub was put on a dark place. After evaporation of the solvent the plate was evaluated visually in UV light at 254 nm.

[5] = HPLC decomposition test of SIN 1 in pH 6.3 phosphate buffer, 5 weeks; assay type: physicochemical; conditions: room temperature, protected from light, complex in pH 6.3 phosphate buffer with 50 mg/ml CDPSI, control in distilled water
Method: (§1) The quantitive measurement of the decomposition degree was carried out by the HPLC method too.
(§2) HPPLC measurement circumstances to the separation of SIN 1-SIN 1 C
(§3) ______________________________________
(§4) Beckman 114 M Solvent Delivery Module,
(§5) 165 Variable Wavelength Detektor, Hewlett-Packard
(§6) Column: Ultrasphere ODS analytical column […],
(§7) Eluent: 0.05 M sodium acetate:
(§8) flowing rate: 1.0 ml/min.
(§9) chart speed: 0.5 cm/min.
(§10) retention times: tR SIN1: 2.9 min.
1. […] Complex was formed with 50 mg/ml (100 fold quantity) of CDPSI. After storage of 5 weeks the HPLC chromatograms were evaluated.

[6] = HPLC decomposition test of SIN 1 in pH 7 phosphate buffer, 4 days; assay type: physicochemical
Method: as §1, §2, §3, §4, §5, §6, §7, §8, §9, §10
2. The test was carried out in a pH 7 phosphate buffer too, choosing similar concentration circumstances.
The chromatograms obtained after 4 days storage were evaluated.

rats = assay: Cardioprotective activity on rats, p.o.; assay type: in vivo
[7] = system: potassium depolarized strips; assay: Relaxing effect on potassium depolarized strips
[8] = Membrane permeation test, diffusion of SIN 1 through Visking type cellophane membrane; assay type: physicochemical; conditions: SIN 1 alone, 1 mg/ml, 37°±1° C.
Method: Visking type cellophane membrane (average pore diameter 24 Angstroms) was used. […] The solutions were stirred by magnetic stirrers and were kept at 37°±1° C. […] The test was repeated in the presence of different cyclodextrins at different concentrations in the donor cell compartment.

[9] = Transformation SIN 1→SIN 1A→SIN 1C in the presence of cyclodextrins in 0.02M acetate buffer pH 5.5 (HPLC); assay type: physicochemical
Source text: (The SIN 1A was detected by HPLC)

[10] = 4 days, 0,5 mg/ml SIN 1, 50 mg/ml CDPSI

shift of the UV spectrum ([1]; 6 day storage, 20 mg/ml DIMEB): ≤ 1 nm | efficiency sequence concluded from the UV spectrum shift [1]: CDPSI>DIMEB>TRIMEB>βCO≥HPβCO
Structure (SMILES): COC[C@H]1O[C@@H]2O[C@H]3[C@H](O)[C@@H](OC)[C@@H](O[C@H]4[C@H](O)[C@@H](OC)[C@@H](O[C@H]5[C@H](O)[C@@H](OC)[C@@H](O[C@H]6[C@H](O)[C@@H](OC)[C@@H](O[C@H]7[C@H](O)[C@@H](OC)[C@@H](O[C@H]8[C@H](O)[C@@H](OC)[C@@H](O[C@H]1[C@H](O)[C@H]2OC)O[C@@H]8COC)O[C@@H]7COC)O[C@@H]6COC)O[C@@H]5COC)O[C@@H]4COC)O[C@@H]3COC [DIMEB, 2,6-di-O-methyl-β-cyclodextrin]

time of decomposition in diluted aqueous solution [2]: 1 to 3 days | time to practically complete transformation into SIN 1C ([1]; aqueous solution without cyclodextrin, stored similarly): 2 to 3 days | decomposition of control solution ([1]; distilled water, 1 week, without CDPSI, in words): practically decomposed | Δλ ([3]; buffer pH 6,4, after 6 days): 12 nm | λ max. ([3]; pH 6.4, 0 days (at preparation)): 291.5 nm | λ max. ([3]; pH 6.4, 1 day): 289.0 nm | λ max. ([3]; pH 6.4, 4 days): 284.9 nm | λ max. ([3]; pH 6.4, 6 days): 279.8 nm | λ max. ([3]; pH 7.0, 0 days (at preparation)): 290.6 nm | λ max. ([3]; pH 7.0, 1 day): 280.4 nm | λ max. ([3]; pH 7.0, 6 days): 277.3 nm | λ max. ([3]; pH 7.6, 0 days (at preparation)): 291.2 nm | λ max. ([3]; pH 7.6, 1 day): 276.4 nm | λ max. ([3]; pH 7.6, 6 days): 277.6 nm | unchanged SIN 1 (TLC) ([4]; pH 7 buffer): still perceptible | unchanged SIN 1 (TLC) ([4]; pH 7.6 buffer): practically no longer detectable | Active ingredient content: SIN 1 [5]: 0,016 | pH value of the solutions after storage ([6]; 4 days): 6.57 | Active ingredient content: SIN 1 [6, 10]: 0.041 mg/mL | Active ingredient content: SIN 1C [6, 10]: 0.125 mg/mL | T 50% (diffusion half life of SIN 1) [8]: 54 min
Structure (SMILES): N=c1c[n+](N2CCOCC2)[n-]o1 [SIN 1, 3-morpholino-sydnonimine]
activity in words (rats; 1 mg/kg): does not exert an activity | cardioprotective activity (rats; 1 mg/kg (complex: same active ingredient)): 11% | T/2 (duration of action) ([7]; 1 or 2 μM): 47 min | T/max (time of maximal relaxation) ([7]; after administration, 1 or 2 μM): 18 min | inhibition at 1 µM ([7]; read-out: maximal relaxation of sustained contraction): 58%

efficiency sequence concluded from the UV spectrum shift [1]: CDPSI>DIMEB>TRIMEB>βCO≥HPβCO
Structure (SMILES): COC[C@H]1O[C@@H]2O[C@H]3[C@H](OC)[C@@H](OC)[C@@H](O[C@H]4[C@H](OC)[C@@H](OC)[C@@H](O[C@H]5[C@H](OC)[C@@H](OC)[C@@H](O[C@H]6[C@H](OC)[C@@H](OC)[C@@H](O[C@H]7[C@H](OC)[C@@H](OC)[C@@H](O[C@H]8[C@H](OC)[C@@H](OC)[C@@H](O[C@H]1[C@H](OC)[C@H]2OC)O[C@@H]8COC)O[C@@H]7COC)O[C@@H]6COC)O[C@@H]5COC)O[C@@H]4COC)O[C@@H]3COC [TRIMEB, 2,3,6-tri-O-methyl-β-cyclodextrin]

efficiency sequence concluded from the UV spectrum shift [1]: CDPSI>DIMEB>TRIMEB>βCO≥HPβCO | SIN 1A found vs control [9]: more than 7 fold
Structure (SMILES): OC[C@H]1O[C@@H]2O[C@H]3[C@H](O)[C@@H](O)[C@@H](O[C@H]4[C@H](O)[C@@H](O)[C@@H](O[C@H]5[C@H](O)[C@@H](O)[C@@H](O[C@H]6[C@H](O)[C@@H](O)[C@@H](O[C@H]7[C@H](O)[C@@H](O)[C@@H](O[C@H]8[C@H](O)[C@@H](O)[C@@H](O[C@H]1[C@H](O)[C@H]2O)O[C@@H]8CO)O[C@@H]7CO)O[C@@H]6CO)O[C@@H]5CO)O[C@@H]4CO)O[C@@H]3CO [βCO, β-cyclodextrin]
